Reference: US20040022870A1, “Immunogenic TLP composition” (priority 1996, published 2004)
Where a SMILES comes first, the peptide text is derived from it.

Assays:
[1] = system: TLP antigen on primary NSCLC culture cells; test: Induction of TLP antigen expression on tumor cells by chemotherapy in vitro; assay type: cell-based, human; conditions: 10:g/ml for 48 hours; for TLP status of TLP-positive cell population after treatment: etoposide and cis-platinum
Description: The cells were processed fresh and after preparation of primary cultures (complete RPMI 1640 culture medium with the addition of FCS 10%).
Along with variation in TLP, other possible phenotype modifications (IL-2 rec (interleukin receptors), HLA-Dr (human leukocyte antigen), CD16 (lymphocyte sub-populations), etc.) induced by treatment with single or combined agents (chemotherapy, cytokines) were also studied.
In the case of TLP, freshly isolated tumor cells were obtained from a surgical NSCLC patient. After plating for 24 h and separation of fibroblasts, cells were resuspended for immunohistochemistry and cytofluorimetric assay. Briefly, CSH 419 antiserum was labeled with PE conjugated anti-rabbit IgG and incubated with the cells.
The freeing of TLP in the culture supernatant was checked using the ELISA test.

[2] = system: cytotoxic CD8 lymphocytes; test: Stimulation of cytotoxic CD8 lymphocytes by synthetic polypeptide; assay type: cell-based, human; conditions: only in patients suffering from NSCLC neoplasia

| SMILES | TLP status of TLP-negative cell population after treatment [1] | TLP status of TLP-positive cell population after treatment [1] | stimulation of cytotoxic CD8 lymphocytes [2] |
| --- | --- | --- | --- |
| N.N.[Cl][Pt][Cl] [cis-platinum] | became TLP-positive | remained TLP positive |  |
| CC[C@H](C)[C@H](NC(=O)[C@H](CO)NC(=O)[C@H](C)NC(=O)[C@H](CCC(=O)O)NC(=O)[C@H](CCCCN)NC(=O)[C@H](CC(N)=O)NC(=O)[C@@H](NC(=O)[C@@H](N)CCCNC(=N)N)[C@@H](C)O)C(=O)O [SEQ ID NO: 1, ArgThrAsnLysGluAlaSerIle] (H-RTNKEASI-OH; N-terminus and C-terminus assumed) |  |  | specific stimulation of the cytotoxic CD8 lymphocytes |
| COc1cc([C@@H]2c3cc4c(cc3[C@@H](O[C@@H]3O[C@@H]5CO[C@@H](C)O[C@H]5[C@H](O)[C@H]3O)[C@H]3COC(=O)[C@H]23)OCO4)cc(OC)c1O [etoposide] | became TLP-positive | remained TLP positive |  |
